{
  "source": "patent US20250230193A1",
  "about": "“CYCLIC COMPOUND HAVING SELECTIVE KRAS INHIBITORY EFFECT ON HRAS AND NRAS” (CHUGAI SEIYAKU KABUSHIKI KAISHA, priority 2022, published 2025)",
  "key": {"[1]": {"target": "GDP-bound HRAS wild-type protein (Homo sapiens, UniProt P01112)", "sequence (P01112 whole entry)": "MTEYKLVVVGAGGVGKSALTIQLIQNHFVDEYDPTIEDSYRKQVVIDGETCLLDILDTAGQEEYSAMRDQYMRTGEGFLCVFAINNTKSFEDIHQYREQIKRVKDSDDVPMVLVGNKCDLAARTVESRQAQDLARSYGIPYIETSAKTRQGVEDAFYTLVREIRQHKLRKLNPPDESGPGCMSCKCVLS", "assay": "Binding to HRAS by surface plasmon resonance (SPR), Single Cycle Kinetics", "details": "for HRAS/KRAS (ratio of KD value for HRAS to KD value for KRAS) / HRAS/KRAS (ratio of KD value with respect to HRAS to KD value with respect to KRAS): GDP-bound HRAS wild-type vs GDP-bound KRAS wild-type"}, "[2]": {"target": "GDP-bound NRAS wild-type protein (Homo sapiens, UniProt P01111)", "sequence (P01111 whole entry)": "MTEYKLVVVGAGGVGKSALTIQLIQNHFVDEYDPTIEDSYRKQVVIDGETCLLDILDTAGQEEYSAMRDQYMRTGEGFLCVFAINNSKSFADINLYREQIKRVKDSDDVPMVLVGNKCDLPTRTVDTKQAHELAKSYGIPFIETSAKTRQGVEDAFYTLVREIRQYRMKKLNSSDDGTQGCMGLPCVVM", "assay": "Binding to NRAS by surface plasmon resonance (SPR), Single Cycle Kinetics", "details": "for NRAS/KRAS (ratio of KD value for NRAS to KD value for KRAS) / NRAS/KRAS (ratio of KD value with respect to NRAS to KD value with respect to KRAS): GDP-bound NRAS wild-type vs GDP-bound KRAS wild-type"}, "[3]": {"details": "KD ratio HRAS/KRAS, class symbols"}, "[4]": {"details": "KD ratio NRAS/KRAS, class symbols"}, "[5]": {"details": "KD ratio HRAS/KRAS, SPR, GDP-bound wild-type proteins"}, "[6]": {"details": "KD ratio NRAS/KRAS, SPR, GDP-bound wild-type proteins"}},
  "note": "Where a SMILES comes first, the peptide text is derived from it. Bridges are numbered along the chain shown (N, C = ends). [ ]: non-standard residue; d: D form. hPhe(3-Cl-4-CF3) = N[C@@H](CCc1ccc(C(F)(F)F)c(Cl)c1)C(=O)O; NPrPhe(4-CF3) = CCCN[C@@H](Cc1ccc(C(F)(F)F)cc1)C(=O)O; NMeGly(cPent) = CN[C@H](C(=O)O)C1CCCC1; Hyp = O=C(O)[C@@H]1C[C@@H](O)CN1; NMeL = CN[C@@H](CC(C)C)C(=O)O; NMeA = CN[C@@H](C)C(=O)O; Ac5c = NC1(C(=O)O)CCCC1; Aze = O=C(O)[C@@H]1CCN1; Sar = CNCC(=O)O",
  "data": [
    {"smiles": "CCC[C@H]1C(=O)N[C@@H]([C@@H](C)CC)C(=O)N(C)CC(=O)N(C)[C@H]2C/C=C\\CCN(C2=O)[C@@H](Cc2ccc(C)cc2)C(=O)N(C)CC(=O)N[C@@H](CCc2ccc(CC)c(Cl)c2)C(=O)N2C[C@H](OCC)C[C@H]2C(=O)NC2(CC(C)(C)C2)C(=O)N(C)[C@@H](C2CCCC2)C(=O)N(C)[C@H](C(=O)N(C)C)CC(=O)N1C", "note": "[PP2778]", "values": [
      {"measurement": "HRAS/KRAS (ratio of KD value with respect to GDP-bound HRAS wild-type protein to KD value with respect to KRAS)", "setting": "[1]; [3]", "result": "A (a compound having 10 or more and less than 20 is denoted as A)"},
      {"measurement": "NRAS/KRAS (ratio of KD value with respect to GDP-bound NRAS wild-type protein to KD value with respect to KRAS)", "setting": "[2]; [4]", "result": "A (a compound having 10 or more and less than 20 is denoted as A)"}
    ]},
    {"smiles": "CCO[C@@H]1C[C@H]2C(=O)NC3(CCC3)C(=O)N(C)[C@@H](C3CCCC3)C(=O)N(C)[C@H](CC)CC(=O)N(C)[C@@H](CC)C(=O)N[C@@H]([C@@H](C)CC)C(=O)N(C)CC(=O)N(C)[C@H]3C/C=C\\CCN(C3=O)[C@@H](Cc3ccc(C(F)(F)F)cc3)C(=O)N(C)CC(=O)N[C@@H](CCc3cc(F)c(C(F)(F)F)c(F)c3)C(=O)N2C1", "note": "[PP1625]", "values": [
      {"measurement": "HRAS/KRAS (ratio of KD value for HRAS to KD value for KRAS)", "setting": "[1]; KD ratio, SPR", "result": "B (a compound having 3 or more and less than 10 is denoted as B)"},
      {"measurement": "NRAS/KRAS (ratio of KD value for NRAS to KD value for KRAS)", "setting": "[2]; KD ratio, SPR", "result": "B (a compound having 3 or more and less than 10 is denoted as B)"}
    ]},
    {"smiles": "CCO[C@@H]1C[C@H]2C(=O)NC3(CCCC3)C(=O)N(C)[C@@H](C3CCCC3)C(=O)N(C)[C@H](C(=O)N3CCOCC3)CC(=O)N(C)[C@@H](CC(C)C)C(=O)N[C@@H]([C@@H](C)CC)C(=O)N(C)CC(=O)N(C)[C@H]3C[C@@H](C)CCN(C3=O)[C@@H](Cc3ccc(C(F)(F)F)cc3)C(=O)N(C)CC(=O)N[C@@H](CCc3cc(F)c(C(F)(F)F)c(F)c3)C(=O)N2C1", "note": "[PP1024]", "values": [
      {"measurement": "HRAS/KRAS (ratio of KD value with respect to HRAS to KD value with respect to KRAS)", "setting": "[1]; KD ratio, SPR", "result": "B (a compound having 3 or more and less than 10 is denoted as B)"},
      {"measurement": "NRAS/KRAS (ratio of KD value with respect to NRAS to KD value with respect to KRAS)", "setting": "[2]; KD ratio, SPR", "result": "B (a compound having 3 or more and less than 10 is denoted as B)"}
    ]},
    {"smiles": "CC[C@H](C)[C@@H]1NC(=O)[C@H](C2CC2)N(C)C(=O)C[C@@H](C(=O)N(C)C)N(C)C(=O)[C@H](C2CCCC2)N(C)C(=O)C2(CCCC2)N(C)C(=O)[C@@H]2C[C@@H](C)CN2C(=O)[C@H](CCc2cc(F)c(C(F)(F)F)c(F)c2)NC(=O)CN(C)C(=O)[C@H](Cc2ccc(C)cc2)N2CC/C=C\\C[C@@H](C2=O)N(C)C(=O)CN(C)C1=O", "note": "[PP1813]", "values": [
      {"measurement": "HRAS/KRAS (ratio of KD value for HRAS to KD value for KRAS)", "setting": "[1]; KD ratio, SPR", "result": "B (a compound having 3 or more and less than 10 is denoted as B)"},
      {"measurement": "NRAS/KRAS (ratio of KD value for NRAS to KD value for KRAS)", "setting": "[2]; KD ratio, SPR", "result": "A (a compound having 10 or more and less than 20 is denoted as A)"}
    ]},
    {"smiles": "CCCN1C(=O)[C@@H]2CCN2C(=O)[C@H](C)N(C)C(=O)[C@H]([C@@H](C)CC)NC(=O)[C@H](CC(C)C)N(C)C(=O)C[C@@H](C(=O)N(C)C)NC(=O)[C@H](C2CCCC2)N(C)C(=O)C2(CCCC2)NC(=O)[C@@H]2C[C@@H](OCC)CN2C(=O)[C@H](CCc2ccc(C(F)(F)F)c(Cl)c2)NC(=O)CN(C)C(=O)[C@@H]1Cc1ccc(C(F)(F)F)cc1", "note": "[PP0383] ([NMeL]I[NMeA][Aze][NPrPhe(4-CF3)][Sar][hPhe(3-Cl-4-CF3)][Hyp](Et)[Ac5c][NMeGly(cPent)]D-NMe2; lactam N-11)", "values": [
      {"measurement": "HRAS/KRAS (ratio of KD for GDP-bound HRAS wild-type to KD for KRAS)", "setting": "[1]; KD ratio HRAS/KRAS, SPR", "result": "B (a compound having 3 or more and less than 10 is denoted as B)"},
      {"measurement": "NRAS/KRAS (ratio of KD for GDP-bound NRAS wild-type to KD for KRAS)", "setting": "[2]; KD ratio NRAS/KRAS, SPR", "result": "C (A compound having a KD ratio of 0.1 or more and less than 3 is denoted as C)"}
    ]},
    {"smiles": "CCO[C@@H]1C[C@H]2C(=O)NC3(CC(C)(C)C3)C(=O)N(C)[C@@H](C3CCCC3)C(=O)N3CCC[C@@H]3CC(=O)N(C)[C@@H](CC)C(=O)N[C@@H]([C@@H](C)CC)C(=O)N(C)CC(=O)N(C)[C@H]3C/C=C\\CCN(C3=O)[C@@H](CC3CCCCC3)C(=O)N(C)CC(=O)N[C@@H](CCc3cc(F)c(C(F)(F)F)c(F)c3)C(=O)N2C1", "note": "[PP1620]", "values": [
      {"measurement": "HRAS/KRAS (ratio of KD value for HRAS to KD value for KRAS)", "setting": "[1]; KD ratio, SPR", "result": "B (a compound having 3 or more and less than 10 is denoted as B)"},
      {"measurement": "NRAS/KRAS (ratio of KD value for NRAS to KD value for KRAS)", "setting": "[2]; KD ratio, SPR", "result": "B (a compound having 3 or more and less than 10 is denoted as B)"}
    ]},
    {"smiles": "CC[C@H](C)[C@@H]1NC(=O)[C@@H]2CCCCCCc3ccc(cc3)C[C@@H](C(=O)N(C)CC(=O)N[C@@H](CCc3ccc(C(F)(F)F)c(OC)c3)C(=O)N3C[C@H](OC4CCC4)C[C@H]3C(=O)NC3(CC(C)(C)C3)C(=O)N(C)[C@@H](C3CCCC3)C(=O)N(C)[C@H](C(=O)N(C)C)CC(=O)N2C)N2CC/C=C\\C[C@@H](C2=O)N(C)C(=O)CN(C)C1=O", "note": "[PP3068]", "values": [
      {"measurement": "HRAS/KRAS (ratio of KD value with respect to GDP-bound HRAS wild-type protein to KD value with respect to KRAS)", "setting": "[1]; [5]", "result": "B (a compound having 3 or more and less than 10 is denoted as B)"},
      {"measurement": "NRAS/KRAS (ratio of KD value with respect to GDP-bound NRAS wild-type protein to KD value with respect to KRAS)", "setting": "[2]; [6]", "result": "A (a compound having 10 or more and less than 20 is denoted as A)"}
    ]},
    {"smiles": "CCO[C@@H]1C[C@H]2C(=O)NC3(CCC3)C(=O)N(C)[C@@H](C3CCCC3)C(=O)N(C)[C@H](C(=O)N(C)C)CC(=O)N(C)[C@@H](CC)C(=O)N[C@@H]([C@@H](C)CC)C(=O)N(C)CC(=O)N(C)[C@H]3CCCCCN(C3=O)[C@@H](Cc3ccc(F)c(OC)c3)C(=O)N(C)CC(=O)N[C@@H](CCc3cc(F)c(C(F)(F)F)c(F)c3)C(=O)N2C1", "note": "[PP0915]", "values": [
      {"measurement": "HRAS/KRAS (ratio of KD value with respect to HRAS to KD value with respect to KRAS)", "setting": "[1]; KD ratio, SPR", "result": "B (a compound having 3 or more and less than 10 is denoted as B)"},
      {"measurement": "NRAS/KRAS (ratio of KD value with respect to NRAS to KD value with respect to KRAS)", "setting": "[2]; KD ratio, SPR", "result": "B (a compound having 3 or more and less than 10 is denoted as B)"}
    ]},
    {"smiles": "CCO[C@@H]1C[C@H]2C(=O)NC3(CC(C)(C)C3)C(=O)N(C)[C@@H](C(CC)CC)C(=O)N(C)[C@H](C(=O)N(C)C)CC(=O)N(C)[C@@H](CC)C(=O)N[C@@H]([C@@H](C)CC)C(=O)N(C)CC(=O)N(C)[C@H]3C/C=C\\CCN(C3=O)[C@@H](Cc3ccc(C)cc3)C(=O)N(C)CC(=O)N[C@@H](CCc3ccc(C(F)(F)F)c(OC)c3)C(=O)N2C1", "note": "[PP2170]", "values": [
      {"measurement": "HRAS/KRAS (ratio of KD value with respect to HRAS to KD value with respect to KRAS)", "setting": "[1]; SPR", "result": "A (a compound having 10 or more and less than 20 is denoted as A)"},
      {"measurement": "NRAS/KRAS (ratio of KD value with respect to NRAS to KD value with respect to KRAS)", "setting": "[2]; SPR", "result": "A (a compound having 10 or more and less than 20 is denoted as A)"}
    ]},
    {"smiles": "CCO[C@@H]1C[C@H]2C(=O)NC3(CC(C)(C)C3)C(=O)N(C)[C@@H](C(CC)CC)C(=O)N(C)[C@H](C(=O)N3CCCCC3)CC(=O)N(C)[C@H]3CCC/C=C/c4ccc(cc4)C[C@@H](C(=O)N(C)CC(=O)N[C@@H](CCc4cc(F)c(C(F)(F)F)c(F)c4)C(=O)N2C1)N1CC/C=C\\C[C@@H](C1=O)N(C)C(=O)CN(C)C(=O)[C@H]([C@@H](C)CC)NC3=O", "note": "[PP2952]", "values": [
      {"measurement": "HRAS/KRAS (ratio of KD value with respect to GDP-bound HRAS wild-type protein to KD value with respect to KRAS)", "setting": "[1]; [3]", "result": "A (a compound having 10 or more and less than 20 is denoted as A)"},
      {"measurement": "NRAS/KRAS (ratio of KD value with respect to GDP-bound NRAS wild-type protein to KD value with respect to KRAS)", "setting": "[2]; [4]", "result": "AA (a compound having 20 or more is denoted as AA)"}
    ]},
    {"smiles": "CCC[C@H]1C(=O)N[C@@H](C2CCCC2)C(=O)N(C)CC(=O)N(C)[C@H]2C/C=C\\CCN(C2=O)[C@@H](Cc2ccc(C)cc2)C(=O)N(C)CC(=O)N[C@@H](CCc2ccc(C(F)(F)F)c(OC)c2)C(=O)N2CC3(CC3)C[C@H]2C(=O)NC2(CC(C)(C)C2)C(=O)N(C)[C@@H](CC(C)(C)C)C(=O)N(C)[C@H](C(=O)N(C)C)CC(=O)N1C", "note": "[PP3010]", "values": [
      {"measurement": "HRAS/KRAS (ratio of KD value with respect to GDP-bound HRAS wild-type protein to KD value with respect to KRAS)", "setting": "[1]; [5]", "result": "B (a compound having 3 or more and less than 10 is denoted as B)"},
      {"measurement": "NRAS/KRAS (ratio of KD value with respect to GDP-bound NRAS wild-type protein to KD value with respect to KRAS)", "setting": "[2]; [6]", "result": "B (a compound having 3 or more and less than 10 is denoted as B)"}
    ]}
  ]
}
